For data set [1], the target named is T1, SARS-CoV-2 PL^pro (Severe acute respiratory syndrome coronavirus 2, UniProt P0DTD1). As to conditions: cited from earlier work.
In data set [2] the target is T1, SARS-CoV-2 PL^pro. As to the kind of experiment: biochemical. The conditions noted are these: for IC50: 60 min incubation.
Data set [3] has as its target T1, SARS-CoV-2 PL^pro. The format is binding. As to conditions: 40 μM protease, 200 μM compound; for Tm of SARS-CoV-2 PLpro incubated with compound: apo protease 43.3 °C.
The next data set deals with SARS-CoV PL^pro (Severe acute respiratory syndrome coronavirus, UniProt P0C6X7). As to the kind of experiment: biochemical.
For data set [4], the target named is T1, SARS-CoV-2 PL^pro. Put plainly: biochemical. The conditions noted are these: Ub-AMC substrate, 60 min incubation.
Data set [5] addresses T1, SARS-CoV-2 PL^pro. As to the kind of experiment: biochemical. The conditions noted are these: 50 nM protease; for Ki: read-out: Ki (binding affinity of initial reversible binding); for kinact: read-out: kinact (rate constant of covalent bond formation) (converted).
For another data set, the target named is MERS-CoV PL^pro (Middle East respiratory syndrome-related coronavirus, UniProt K9N7C7). As to the kind of experiment: biochemical.
MERS-CoV PL^pro, sequence (K9N7C7 1552-1823 limits assumed): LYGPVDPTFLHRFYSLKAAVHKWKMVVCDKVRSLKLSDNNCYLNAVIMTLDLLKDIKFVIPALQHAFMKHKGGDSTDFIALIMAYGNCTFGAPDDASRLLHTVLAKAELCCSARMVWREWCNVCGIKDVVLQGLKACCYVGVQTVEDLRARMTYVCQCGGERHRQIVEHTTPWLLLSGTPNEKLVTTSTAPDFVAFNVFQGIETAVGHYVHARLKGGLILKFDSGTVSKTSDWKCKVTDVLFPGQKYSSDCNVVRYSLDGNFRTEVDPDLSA
Data set [6] deals with T1, SARS-CoV-2 PL^pro. As to the kind of experiment: cell-based. The conditions noted are these: HEK293T cells; for EC50: 48 h.
Data set [7] is described as follows: Cytotoxicity, cell counting kit-8 (CCK8) assay. As to conditions: human, CC50, HEK293T cells. (Tetrazolium assays rely on reduction of a dye to a coloured formazan, in cell work by metabolically active cells.)
In the next data set the test system is HEK293T cells. Put plainly: Cytotoxicity, cell counting kit-8 (CCK8) assay. The conditions noted are these: HEK293T cells, 24 h.

Where two headings read alike, the source gives them in different places.

Usually IC50 stands for the concentration needed to halve the response being measured. As to `COC(=O)/C=C/CNC(=O)CNC(=O)[C@H](CN)NC(=O)[C@H](CCc1nc2ccccc2s1)NC(C)=O` [VIR250], the IC50 at SARS-CoV-2 PL^pro [1] (read-out: IC50) was roughly 50 µM.
Regarding `COC(=O)/C=C/CNC(=O)CNC(=O)[C@H](CN)NC(=O)[C@H](CCc1ccc(O)cc1)NC(C)=O` [VIR251], at SARS-CoV-2 PL^pro [1], the IC50 was roughly 50 µM.
By kinact/KI is commonly meant the maximal inactivation rate divided by the concentration that gives half of it. As usually defined, the Ki is the equilibrium dissociation constant of an inhibitor or competing ligand from its target. As a reminder, the kinact is the maximal first-order rate at which the target is inactivated. Usually EC50 stands for the concentration that produces a half-maximal response. Low readings indicate greater potency, high ones weaker potency. For orientation: CC50 means the concentration at which the toxic effect on the cells reaches its halfway point. Low values mean harm at low concentration, high ones better tolerance by the cells. Regarding `COC(=O)/C=C/CNC(=O)CNC(=O)CNC(=O)C1CCN(C(C)c2cccc3ccccc23)CC1` (stereo not drawn) [compound 2, Methyl (E)-4-(2-(2-(1-(1-(Naphthalen-1-yl)ethyl)piperidine-4-carboxamido)acetamido)acetamido)but-2-enoate], the “change in inhibitory activities in the presence and absence of DTT” value at SARS-CoV-2 PL^pro [2] (4 mM DTT, varied concentrations) is reported as “no apparent change”. Besides, on SARS-CoV-2 PL^pro [2] (RLRGG-AMC substrate), the “improvement in potency (IC50) compared to VIR251” value was “about 100 fold”, the “improvement in potency (IC50) compared to compound 1” value was roughly 5 fold, the “increase in potency (IC50) compared to positive control GRL0617” value is given as 2 fold and 0.46 µM corresponded to half-maximal inhibition (IC50). Also, the “Tm of SARS-CoV-2 PLpro incubated with compound” value on SARS-CoV-2 PL^pro [3] was determined as 68.0 °C. Moreover, inhibition at SARS-CoV PL^pro was half-maximal at 0.39 µM (IC50). Besides, it took 0.46 µM to reach half-maximal inhibition against SARS-CoV-2 PL^pro [4] (IC50). Further, at SARS-CoV-2 PL^pro [5], the kinact/KI is 160 M⁻¹ s⁻¹, the Ki was 5.32 µM and the kinact was 0.00085 s⁻¹. On MERS-CoV PL^pro, the IC50 is greater than 100 µM and the “inhibitory activity towards MERS-CoV PLpro” value is listed as “basically ineffective”. Besides, at SARS-CoV-2 PL^pro [6], the “improvement in EC50 compared to GRL0617” value is given as ~ 4.4 fold and the EC50 was found to be 3.61 µM. In data set [7], the CC50 at 24 h was roughly 180 µM. Moreover, the CC50 in the data set with HEK293T cells was roughly 180 µM.
As for `COC(=O)/C=C/C(=O)NNC(=O)CCc1ccccc1C(=O)NC(C)c1cccc2ccccc12` (stereo not drawn) [compound 3, reference compound], the CC50 at 24 h in [7] stood at 58.3 ± 22.1 µM. This molecule came in with a CC50 in the data set with HEK293T cells of 58.3 µM.
The molecule `COC(=O)/C=C/C(=O)NNC(=O)CNC(=O)CNC(=O)C1CCN(C(C)c2cccc3ccccc23)CC1` (stereo not drawn) [compound 4, Methyl (E)-4-(2-((1-(1-(Naphthalen-1-yl)ethyl)piperidine-4-carbonyl)glycylglycyl)hydrazinyl)-4-oxobut-2-enoate] gave an IC50 at SARS-CoV-2 PL^pro [2] (RLRGG-AMC substrate) of 0.23 µM. The “inhibitory potency higher than compound 2” value against SARS-CoV-2 PL^pro [2] (enzymatic inhibition assay) is given as ~ 1 fold. Further, the “Tm increase compared to apo protease” value on SARS-CoV-2 PL^pro [3] was found to be 15.1 °C. Moreover, the IC50 against SARS-CoV-2 PL^pro [4] is 0.32 µM. Besides, at SARS-CoV-2 PL^pro [5], the kinact/KI is 265 M⁻¹ s⁻¹, the Ki is 4.65 µM and the kinact was 0.00123 s⁻¹. Also, at SARS-CoV-2 PL^pro [6], the “inhibitory effect in cell-based protease assay” value was “hardly has an inhibitory effect” and the EC50 is greater than 200 µM. The CC50 at 24 h in data set [7] is greater than 200 µM.
Turning to GRL0617 [reference compound], at SARS-CoV-2 PL^pro [3], the “Tm of SARS-CoV-2 PLpro incubated with compound” value came out at 50.4 °C. The same molecule showed a CC50 in the data set on HEK293T cells greater than 200 µM.
